Patent publication US20240110915A1, “METHODS, PRODUCTS AND SYSTEMS FOR PROGNOSIS OF SUBJECTS SUFFERING FROM MULTIPLE MYELOMA” (University of South Australia, priority 2020, published 2024)

Key:
[1] = test system: DSG2; assay: DSG2 protein knockdown in KMS-11 cells by Western blot; format: cell-based, human; conditions: stable shRNA expression
Text: Lentiviral vectors (pGIPZ) expressing DSG2-shRNA and non-silencing control-shRNA were obtained from Open Biosystem (Dharmacon). The following shRNA sequences were cloned into the pGIPZ expression plasmid: 5′-TGGATGTCAATGACAATAT-3′ (DSG2-shRNA60) (SEQ ID NO. 2); 5′-CCAGTGTTCTACCTAAATA-3′ (DSG2-shRNA62) (SEQ ID NO. 3); and
5′-[…]-3′ (non-silencing shRNA) (SEQ ID NO. 4). Replication incompetent lentiviral particles were generated by transiently co-transfecting HEK293T cells with ViraPower Lentiviral Support Kit (Invitrogen) and pGIPZ-shRNA vectors using Lipofectamine 2000 (Invitrogen). […]
KMS-11 cells cultured on 100 mm Petri dishes were washed twice with ice-cold PBS and solubilized in RIPA lysis buffer (150 mM NaCl, 50 mM Tris-HCl, pH 7.5, 1% Triton X-100, 1% deoxycholate, 0.1% SDS, and 2 mM EDTA) containing both protease (cOmplete™, Roche) and phosphatase inhibitors (PhosStop™, Roche) for 10 min on ice. The lysates were clarified by centrifugation at 13,000×g for 10 min at 4° C., and protein concentrations determined using the bicinchoninic acid protein assay kit (Pierce). […] After washing, immunoreactivity was detected by using the Odyssey infrared imager (Li-COR). […] Band intensities were quantitated by densitometry using the software associated with the Odyssey infrared imager (Li-COR).

[2] = test system: KMS-11 human multiple myeloma cells; assay: Cell viability by AnnexinV staining, flow cytometric analysis; format: cell-based; conditions: overnight exposure, 4 nM
Text: (§1) Lentiviral vectors (pGIPZ) expressing DSG2-shRNA and non-silencing control-shRNA were obtained from Open Biosystem (Dharmacon) and cloned into the pGIPZ expression plasmid: 5′-TGGATGTCAATGACAATAT-3′ (SEQ ID NO: 2; DSG2-shRNA60); 5′-CCAGTGTTCTACCTAAATA-3′ (SEQ ID NO:3; DSG2-shRNA62); and 5′-[…]-3′ (SEQ ID NO: 4; non-silencing shRNA). Replication incompetent lentiviral particles were generated by transiently co-transfecting HEK293T cells with ViraPower Lentiviral Support Kit (Invitrogen) and pGIPZ-shRNA vectors using Lipofectamine 2000 (Invitrogen). Lentiviral supernatant was harvested 72 hours post-transfection and used to transduce 1×10^5 KMS-11 cells that were seeded in a 6-well plate, in the presence of 4 μg/mL polybrene. Puromycin (1 μg/mL) was continually added to maintain culture of cells with the transduced vectors and DSG2 expression was routinely checked using flow cytometry and western blot. Cell without and with DSG2 KD were cultured with increasing concentrations of Bortezomib (2-4 nM, (Janssen Cilag, New Brunswick NJ)) and after 12 hours the cell viability was determined using AnnexinV staining using flow cytometric analysis.

[3] = test system: KMS-11 cells with stable knockdown of DSG2 (DSG2 shRNA); assay: Cell viability by AnnexinV staining, cells with stable DSG2 knockdown; format: cell-based, human; conditions: over 12 hours at 2 nM and 4 nM; compared with cells without knockdown
Text: as §1

[4] = target: human desmoglein 2 (DSG2) (human) (UniProt Q14126); assay: cell-based or functional assay

Compound: 5′-CCAGTGTTCTACCTAAATA-3′ [DSG2-shRNA62]
- knockdown of DSG2 protein [1]: Efficient knockdown

Compound: 5′-TGGATGTCAATGACAATAT-3′ [DSG2-shRNA60]
- knockdown of DSG2 protein [1]: Efficient knockdown

Compound: CC(C)C[C@H](NC(=O)[C@H](Cc1ccccc1)NC(=O)c1cnccn1)B(O)O [Bortezomib]
- viability of KMS-11 human multiple myeloma cells [2]: reduced
- sensitivity to Bortezomib (cell viability) of KMS-11 cells with stable DSG2 knockdown [3]: even further increased sensitivity

Compound: human desmoglein 2 (DSG2) (from UniProt Q14126 50-1118)
- reduction in adhesion of KMS-11 cells with DSG2 knockdown (shRNA construct A) to a BMEC-DSG2 monolayer, compared to the NT control cell line [4]: 28.1%
- reduction in adhesion of KMS-11 cells with DSG2 knockdown (shRNA construct C) to a BMEC-DSG2 monolayer, compared to the NT control cell line [4]: 35.6%
